pEC50, pIC50: −log10 of the molar value. “And” between values parts separate entries of the source, which are not always exact repeats. Identical values can stand only once. The source made the active and inactive calls.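 Rule for the calls: active = compounds giving half or more protection of infected cells from virus-caused growth loss, again on retest; inactive = the rest.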
Test system: CEM cells HIV-1 protection, formazan growth assay
Experiment: NCI AIDS Antiviral Assay
Settings: for pIC50: measured here: growth of uninfected CEM cells
Method in brief: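 CEM (human) cells, HIV-1 infected vs uninfected, 5-point dosing, formazan growth read-out. Retest threshold 50% protection.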

Compound	pEC50	pIC50	outcome
CC(=O)OCCCC(NC(=O)OC(C)(C)C)C(=O)NC(CCCOC(C)=O)C(=O)NC(Cc1ccc([N+](=O)[O-])cc1)C(=O)NCC(=O)OCc1ccccc1 (stereo unspecified)	< 3.70	4.79	
Nc1c(C(=O)O)[nH]c(=O)[nH]c1=S	< 3.70	4.02	
CC(C)(O)[C@H]1CC[C@@]23CCCC(=O)C2(C1)C3 (stereo partly specified)			inactive
CCCCCCCCCCCCCCCC(=O)OC(CC(=O)O)C[N+](C)(C)C (stereo unspecified)			inactive
O=C1C(=C/C=C2/SC(c3ccccc3)(c3ccccc3)c3ccccc32)C(=O)c2ccccc21	< 3.70	< 3.70	
COc1cccc2c(N)c3cccc(C(=O)NCCN(C)C)c3nc12	< 6.70	7.48	
Cn1cc(NC(=O)c2cc(NC(=O)CCCCCCC(=O)Nc3cc(C(=O)Nc4cc(C(=O)NCCC(=N)N)n(C)c4)n(C)c3)cn2C)cc1C(=O)NCCC(=N)N	< 3.69	4.45	
Cc1ccc(/C=C/C(=O)c2sc(-c3nc(C)c(C(=O)/C=C/c4ccc(C)cc4)s3)nc2C)cc1	< 4.41	< 4.41	
Cc1ccc(C2(O)CSC(=NC34CC5CC(CC(C5)C3)C4)N2C(P(=O)(O)O)P(=O)(O)O)cc1 (stereo unspecified)	< 3.70	4.39	
COCC12CN(C)C3C4C(OC)C1C3(C(OC)CC2O)C1CC2(O)C(OC)C(O)C4(OC(C)=O)C1C2OC(=O)c1ccccc1 (stereo unspecified)			inactive
O=C(O)Cc1cc(=O)[nH]n(-c2ccccc2)c1=O	< 3.70	< 3.70	
CC(C)CCCC(C)[C@H]1CC[C@H]2[C@@H]3CC[C@H]4C[C@@H](CCC=C(c5cc(Cl)c(O)c(C(=O)OC(C)(C)C)c5)c5cc(Cl)c(O)c(C(=O)OC(C)(C)C)c5)CC[C@]4(C)[C@H]3CC[C@]12C (stereo partly specified)	< 4.30	< 4.30	
CC(C)(Oc1ccc(/C=C/C(=O)c2ccc(Cl)cc2)cc1)C(=O)Nc1c(Cl)cccc1Cl	< 4.83	< 4.83	
CC1C(C#N)(C#N)C(C#N)=C(N)C1(Cl)[N+](=O)[O-] (stereo unspecified)	< 3.70	5.43	
COC(=O)C1CC(C(=O)OC)c2nc3cc(C)c(C)cc3nc21 (stereo unspecified)	< 4.08	< 4.08	
COC1(OC)c2no[n+]([O-])c2CCC1O (stereo unspecified)	< 3.70	< 3.70	
COc1cc(C(=O)NC2CCc3cc(OC)c(OC)c(OC)c3-c3ccc(OC)c(=O)cc32)cc(OC)c1OC (stereo unspecified)	< 6.70	7.18	
CC(C)=CCC[C@@H](C)C1[C@@H](OC2OC(CO)C(O)C(O)C2O)CC2(C)[C@@H]3CC(=O)C4C(C)(C)[C@@H](OC5OC(CO)C(O)C(O)C5O)CC[C@@]45C[C@@]35CC[C@]12C (stereo partly specified)	< 4.48	4.50	
O=C1CC(O)(c2ccccc2)C(c2ccccc2)=C1c1ccccc1 (stereo unspecified)			inactive
C=C1CCC(OC(C)=O)C2(C)C(OC(C)=O)CC3OC3(C)C2C(OC(C)=O)C2C(C)C(=O)OC2C1Cl (stereo unspecified)	< 3.70	< 3.70	
O=C1C[C@H](c2ccccc2)C2(C(=O)c3ccccc3C2=O)[C@H](c2ccccc2)C1	< 3.99	< 3.99	
C=CCOc1cc2c(ccc1=O)-c1c(cc(OC)c(OC)c1OC)CCC2NC(C)=O (stereo unspecified)	< 3.70	5.44	

Compound	pEC50	pIC50	outcome
CCOc1ccc(/C=C(\Cl)c2ccc(OC)c(OC)c2)cc1	< 3.70	3.72	
O=c1[nH]c2c3ccccc3ccc2c2cc3c(cc12)OCO3			inactive
c1ccc2oc(NCCSSCCNc3nc4ccccc4o3)nc2c1	< 3.70	4.98	
Cc1cc2c3c(c1)S(=O)(=O)c1cc(Cl)ccc1N3CCC2	< 3.70	< 3.70	
O=C1CCC(N2C(=O)C3CCCCC3C2=O)C(=O)N1 (stereo unspecified)	< 3.70	< 3.70	
CC(=O)NNc1nc(C)c(C(=O)/C=C/c2ccc(/C=C/C(=O)c3sc(NNC(C)=O)nc3C)cc2)s1	< 4.31	< 4.31	
CC1CC[C@@]23CCC4(C)[C@@](C=CC5[C@@]6(C)CCC(=O)C(C)(C)C6CC[C@]54C)(OC2=O)[C@@H]3[C@H]1C (stereo partly specified)			inactive
O=C(c1ccccc1)N1C2C3CC(OCc4ccccc4)(OCc4ccccc4)C(O3)C21 (stereo unspecified)	< 4.77	< 4.77	
Cc1ccc(/C=C2\N=C(N3CCCC(CO)C3)NC2=O)cc1 (stereo unspecified)	< 3.70	< 3.70	
O=C(Nc1ccccc1)N1CCN(C(=O)Nc2ccccc2)C1=S	3.71	< 3.70	
CCCc1[nH]nc(CCC(=O)N(Cc2ccccc2)Cc2ccccc2)c1CC	< 3.48	< 3.48	
O=C(O)c1cc(Cc2cc(Cl)c(O)c(C(=O)O)c2)cc(Cl)c1O	< 3.30	3.46 and 3.69	
FC(F)(F)c1cccc(N(c2nc(Cl)nc(Cl)n2)c2nc(Cl)nc(Cl)n2)c1	< 3.70	< 3.70	
OC1c2cccn2-c2cc(Cl)ccc2SC1c1ccccc1 (stereo unspecified)	< 4.15	5.35	
COC(=O)C12CCCN1CCC2	4.58	< 3.70	
O=C(Nc1nn[nH]n1)c1nc(-c2ccccc2)cc(=O)[nH]1	< 3.70	< 3.70	
O=[N+]([O-])c1cccc2nc3ccccc3c(NCCc3cccc[n+]3[O-])c12	< 3.70	7.20	
CC(=O)Nc1c(C#N)c2n(c1C(=O)Nc1ccccc1)CCCC2	< 3.70	< 3.70	
O=C1NC2OC(CO)C(O)C(O)C2O1 (stereo unspecified)	< 3.70	< 3.70	
N#Cc1c2ccc([N+](=O)[O-])cc2c(=O)n2c1[nH]c1ccc(C(F)(F)F)cc12	< 3.70	5.72	
CCOC(=O)/C(=N\OC)C(O)C(F)(F)F (stereo unspecified)	< 3.70	< 3.70	
CCCCNc1nc2ccccc2c2c1ncn2CC(C)C	< 3.70	4.70	

Compound	pEC50	pIC50	outcome
CO[C@H](c1ccccc1)[C@H](C)N(C)c1ccc2ccccc2c1C1=NC(C)(C)CO1	< 4.19	< 4.19	
O=C(NCCN1CCCCC1)c1ccc(Br)cc1	< 3.70	< 3.70	
COC(=O)[C@@H]1O[C@]12[C@@H](CO[Si](C)(C)C(C)(C)C)O[C@@H](n1cc(C)c(=O)[nH]c1=O)[C@@H]2O[Si](C)(C)C(C)(C)C	< 3.70	5.43	
O=C(Nc1cc2c(oc1=O)CCC2)c1cnccn1	< 4.00	< 4.00	
N[C@@H](Cc1ccc(O)c(O)c1)C(=O)O	< 3.70	4.29	
O=C(O)C1OC(n2cc([N+](=O)[O-])c(=O)[nH]c2=O)C(O)C1O (stereo unspecified)	< 3.70	< 3.70	
Oc1ccc(O)c(-n2cccn2)c1-n1cccn1	< 3.96	4.37	
CN1NC(c2ccccc2)=C(C#N)C(=O)CC1c1cccs1 (stereo unspecified)	< 3.70	< 3.70	
NNC(=O)c1ccc(-n2nnc(C(=O)NN)c2C(=O)NN)cc1	< 3.30	< 3.30	
CC(C#N)N(C(C)C#N)N(C)C (stereo unspecified)			inactive
Brc1ccc2[nH]c3nc(N/N=C/c4cccs4)nnc3c2c1	< 3.70	< 3.70	
CC(=O)CC12NC(=O)N(C)N=C1N(C)C(=O)N(C)C2=O (stereo unspecified)	< 3.70	4.97	
C#CCN1CCN(C(=S)N/N=C(\C)c2ccccn2)CC1	< 5.65	7.14	
Cc1cc(C)nc(NS(=O)(=O)c2ccc(Nc3c4ccccc4nc4ccc(C(=O)Nc5ccc(S(=O)(=O)N=C(N)N)cc5)cc34)cc2)n1	< 4.03	4.32	
O=C(NC1CCN(Cc2ccccc2)CC1)c1ccc(I)cc1	< 3.70	4.80	
CCOC(=O)C(=Cn1ccc(=O)[nH]c1=S)C(=O)OCC	< 3.70	< 3.70	
S=C(NCCNC(=S)[S][Sn]([c]1ccccc1)([c]1ccccc1)[c]1ccccc1)[S][Sn]([c]1ccccc1)([c]1ccccc1)[c]1ccccc1	< 7.00	7.19	
Cn1c(=O)oc2cc(C(=O)CSC(=S)N3CCCCCC3)ccc21	< 3.70	3.87	
CC(=O)N(C)OC(=O)CC(=O)c1ccccc1	< 3.11	3.18	
Cc1ccccc1SSc1ccccc1C			inactive
[N-]=[N+]=CC(=O)OC1CCc2ccccc21 (stereo unspecified)	< 3.70	< 3.70	
Cc1cn(C2CC(OC=O)C(CO)O2)c(=O)[nH]c1=O (stereo unspecified)	< 2.24	4.21	

Compound	pEC50	pIC50	outcome
COc1ccc(N=C2C(=Nc3ccc(OC)cc3)N(c3ccccc3[N+](=O)[O-])C(=S)N2c2ccc(OC)cc2)cc1	< 3.70	4.32	
CC[C@H]1CN2CCc3cc(OC)c(OC)cc3[C@@H]2C[C@@H]1C[C@H]1NCCc2c1[nH]c1ccc(O)cc21			inactive
O=C(O)CCS(=O)(=O)O	< 3.70	< 3.70	
CCC1OC2C(CC=C(C)C)=C3OC(C)(O)C(C)(CC)C(=O)C3=C3OC(=O)C=C1C32 (stereo unspecified)	< 3.70	4.48	
CC1=NN(C(=O)c2ccc(Cl)cc2)C(=O)/C1=C/c1ccccc1O	< 4.68	< 4.68	
Nc1nc(Cl)cc(OCC2(CO)CC=CC2)n1	< 3.70	3.90	
CCC1COc2nc(=O)c(C=NCCCN(C)C)c(N)n21 (stereo unspecified)	< 3.52	< 3.52	
COCn1cnc2c(=O)nc(SC)n(-c3ccccc3)c21	< 3.70	< 3.70	
CCOc1ccc(/C=C/C(=O)c2sc(NNC(C)=O)nc2C)cc1	< 4.68	< 4.68	
Nc1[nH]nc2nc3n(c(=O)c12)CCCCC3	< 4.34	< 4.34	
Cc1ccc(/C=C2/N=C(N/N=C\c3ccccc3)NC2=O)cc1	< 3.70	3.89	
Cc1ccc(Cc2n[nH]c(=O)[nH]2)cc1	< 3.70	< 3.70	
O=C(NC/C=C/Br)Nc1cnc2ccccc2c1	< 3.70	3.82	
COc1cccc2c1CCc1sc(CN3CCN(C)CC3)nc1-2	< 3.70	4.52	
Cc1ccc(N/N=C/C2=CC(C)(C)C(C#N)(C#N)C(O)=C2C#N)cc1	< 3.70	5.18	
CCOCC=NCC(=O)OCC	< 2.84	< 2.84	
C[N+](C)(C)CC1CCC(C[N+](C)(C)C)C1=NO (stereo unspecified)	< 3.30	< 3.30	
Cc1cccc2c(=O)c3c(O)cc4c(c3n(C)c12)C=CC(C)(C)O4	< 3.70	4.83	
CN(C)C(=O)NCCN1CCCCCc2ccccc21	< 3.70	4.31	

Reference: PubChem BioAssay AID179 (DTP/NCI, 2004)
